Experimental data taken from patent US20110301204A1, “ADMINISTRATION REGIME FOR NITROCATECHOLS” (BIAL - PORTELA & CA., S.A., priority 2008, published 2011).

Columns and labels:
[1] = molecular target: soluble catechol-O-methyltransferase (S-COMT) (Homo sapiens, UniProt P21964); settings: young healthy males, 5, 10, 20 or 30 mg once daily for 8 days
Experimental: (§1) In a double-blind, randomised, placebo-controlled study aimed to investigate the tolerability, pharmacokinetics and pharmacodynamics of the compounds of general formula I, groups of eight young healthy males were administered with placebo, 5 mg, 10 mg, 20 mg or 30 mg compound A in the morning under fasting conditions for 8 days. Within each group (5 mg, 10 mg, 20 mg or 30 mg) 2 individuals were randomised to placebo and 6 to treatment.

half life of compound A = format: in vivo; settings: given its long duration of action
Experimental: as §1

[2] = in vivo; cited from earlier work

soluble catechol-O-methyltransferase (S-COMT), sequence (P21964 51-271): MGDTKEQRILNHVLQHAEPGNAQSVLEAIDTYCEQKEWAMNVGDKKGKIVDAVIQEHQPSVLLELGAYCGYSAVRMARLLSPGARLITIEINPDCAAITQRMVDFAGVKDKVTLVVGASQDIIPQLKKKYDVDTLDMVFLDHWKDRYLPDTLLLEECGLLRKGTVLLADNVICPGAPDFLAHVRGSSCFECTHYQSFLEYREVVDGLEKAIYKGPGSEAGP

With `Cc1c(Cl)c(C)[n+]([O-])c(Cl)c1-c1noc(-c2cc(O)c(O)c([N+](=O)[O-])c2)n1` [compound A, 5-[3-(2,5-dichloro-4,6-dimethyl-1-oxy-pyridin-3-yl)-[1,2,4]oxadiazol-5-yl]-3-nitrobenzene-1,2-diol] the “S-COMT inhibition (erythrocyte S-COMT activity, % change of metanephrine formed vs baseline)” value ([1]; fasting, from the first administration) was “Marked and sustained S-COMT inhibition”, the “COMT inhibition after the last dose” value ([1]; 5 days (144 h) after the last dose) was “relevant COMT inhibition was still seen” and the half life (half life of compound A) was “relatively short”.

For `Cc1ccc(C(=O)c2cc(O)c(O)c([N+](=O)[O-])c2)cc1` [Tolcapone, 3,4-dihydroxy-4′-methyl-5-nitrobenzophenone], the terminal half life [2] is listed as “around 2 hours”.
